Laboratory results reported in US20230014907A1, “INHIBITORS OF APOL1 AND METHODS OF USING SAME” (Vertex Pharmaceuticals Incorporated, priority 2020, published 2023).
pIC50: −log10 of the molar value.

Legend:
G1 APOL1 = biological target: T1, G1 APOL1 (Homo sapiens, UniProt O14791, I384M/S342G); test: Acute APOL1 Thallium Assay with Inducible Stable Clones of HEK 293 Cells; format: cell-based; details: HEK 293 inducible stable clones, G1 APOL1; read-out: Thallium Assay (IC50)
T1 construct: expressed in transfected cells
T1 sequence (O14791 28-398 S342G/I384M): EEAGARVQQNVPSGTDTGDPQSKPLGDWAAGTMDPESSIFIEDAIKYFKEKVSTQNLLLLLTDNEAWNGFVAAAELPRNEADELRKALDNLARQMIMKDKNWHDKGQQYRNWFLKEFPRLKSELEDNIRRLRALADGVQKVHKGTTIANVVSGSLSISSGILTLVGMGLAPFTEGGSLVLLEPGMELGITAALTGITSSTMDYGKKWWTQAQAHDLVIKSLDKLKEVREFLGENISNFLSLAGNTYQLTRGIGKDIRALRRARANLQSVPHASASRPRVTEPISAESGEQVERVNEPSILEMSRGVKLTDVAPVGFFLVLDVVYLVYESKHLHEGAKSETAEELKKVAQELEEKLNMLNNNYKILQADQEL
How it was run: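 Pore activity was read as the fluorescence increase from Tl+ entering cells loaded with an AM-ester thallium indicator dye. The cells were tetracycline-inducible HEK293 T-Rex expressing G1 APOL1 (clone DC3.25), induced when plated at 26000 per well and incubated at 37° C.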

APOL1 G1 Protein = biological target: T2, APOL1 G1 Protein (Homo sapiens, UniProt O14791, I384M/S342G); test: Trypanosoma brucei brucei Lysis Assay Using APOL1 Recombinant Protein (AlamarBlue viability); format: cell-based; details: read-out: Trypanosomal Assay (IC50)
T2 sequence (O14791 28-398 S342G/I384M): T1 sequence (O14791 28-398 S342G/I384M)
Source text: Trypanosoma brucei brucei is a blood stream parasite to which human, gorillas and baboon are immune due to the presence of the APOL1 protein in their HDL particles. The protein is uptaken by the parasite via the TbHpHb receptor located in its flagellar pocket and is bonded by the Hpr protein contained in the HDL particles which triggers the receptor endocytosis by the parasite.
Following endocytosis, the formed vesicle containing the HDL particle matures from early to late endosome, and subsequently to lysosome. The concomitant pH change in the lumen of the vesicle triggers the insertion of the APOL1 protein into the membrane of the late endosome/lysosome and hereby triggers lysosomal membrane permeabilization and as a further downstream event, trypanosome lysis. Trypanosoma brucei brucei is sensitive to lysis by all three APOL1 variants (G0, G1, and G2).
The Trypanosoma brucei brucei lysis assay is a lysis assay of the parasite using recombinant APOL1 protein variant followed by a fluorescent detection method of viability by the addition of AlamarBlue reagent to the assay well, a general metabolic redox indicator (AlamarBlue assay).
Briefly, the AlamarBlue active compound, the resazurin, a blue, water soluble, non-toxic and cell permeable molecule, which can be followed by absorbance, is reduced by various metabolic pathways into resorufin, a red compound which can be followed by either absorbance or fluorescence. The assay allows the calculation of the percent viability (percent of living Trypanosomes remaining in each well) at the end of a lysis relative to the untreated condition by interpolation of fluorescent values (FLU) on a standard curve with a known amount of seeded trypanosome/well.
Trypanosoma brucei brucei (ATCC, Cat. No. PRA-382) • Lister 427 VSG 221 bloodstream form.
Thaw/Expansion Media (ATCC Medium 2834 Modified HMI-9 Medium)
Assay Media (No Phenol Red/No FBS): Make on Day of Use
Hypoxanthine Stock (100×)-9 (10×)
Equipment • E1-Clip Tip pipette 12 channel adjustable 2-125 μL, Cat. No. 4672070BT • ThermoFisher MultiDrop 384, Cat. No. 5840300 • Multidrop • Agilent Bravo, Cat. No. G5409A • Bravo • SpectraMax M5
Trypanosoma brucei brucei Culture
Step 2, Day 4 • Centrifuge at 800×g for 5 minutes at room temperature. • Resuspend in 1 mL media. • Make a 1:25 fold dilution (10 μL/240 μL media). • Count on a hemocytometer (after adding parasites). • Let sit for 1-2 minutes for the parasites to settle. • Count should be approximately 100 viable motile parasites/16 grid or approximately 25×10^6 parasites/flask. • Passage the parasites by adding 1×10^6 parasites/T75 flask in 20 mL media. • Passage the parasites by adding 2.33×10^6 parasites/T175 flask in 46.6 mL media. • For every T75 flask should make enough for approximately 1.5×384 well assay plates. • For every T175 flask should make enough for approximately 3.8×384 well assay plates.
Step 3, Day 6 • Centrifuge at 800×g for 5 minutes. • Resuspend in 3 mL assay media (No phenol red, no FBS) per 75 starting flask. • Resuspend in 7 mL assay media (No phenol red, no FBS) per 175 flask • Make a 1:25 fold dilution. • Count by hemocytometer. • Every T75 flask set up should have approximately 75×10^6 parasites/flask (verify doubling time=8.7 hours±1 hour). • Every T175 flask set up should have approximately 175×10^6 parasites/flask (verify doubling time=8.7 hours±1 hour). • Require 46×10^6 parasites per 384 well plate (at 120,000 parasites per well). […]

Compound | pIC50 (G1 APOL1) | pIC50 (APOL1 G1 Protein)
Cc1ccc(CNC(=O)CCc2c(-c3ccc(F)cc3)[nH]c3c(F)cc(F)cc23)o1 [Compound 177] | < 6.00 | < 6.00
CCC(C)(CO)NC(=O)CCc1c(-c2ccc(F)cc2)[nH]c2ccc(F)cc12 (racemic) [Compound 62] | < 6.00 | < 6.00
CC[C@H](CO)NC(=O)CCc1c(-c2ccc(F)cc2)[nH]c2ccc(F)cc12 [Compound 89] | 6.00 to 6.60 | > 6.60
O=C(CCc1c(-c2ccc(F)cc2)[nH]c2ccc(F)cc12)N[C@H]1C[C@@H]1c1ccccc1 [Compound 23] | < 6.00 | < 6.00
CC(C)(C)OC(=O)NC1CN(C(=O)CCc2c(-c3ccc(F)cc3)[nH]c3ccc(F)cc23)C1 [Compound 52] | < 6.00 | < 6.00
O=C(CCc1c(-c2ccc(F)cc2)[nH]c2ccc(F)cc12)Nc1cn[nH]c1 [Compound 46] | < 6.00 | < 6.00
CC(CNC(=O)OC(C)(C)C)NC(=O)CCc1c(-c2ccc(F)cc2)[nH]c2ccc(F)cc12 (racemic) [Compound 59] | < 6.00 | < 6.00
O=C(CCc1c(-c2ccc(F)cc2)[nH]c2c(F)cc(F)cc12)N[C@H]1CC[C@@H](O)C1 [Compound 179] | < 6.00 | < 6.00
CC(C)(C)OC(=O)NC1CCN(C(=O)CCc2c(-c3ccc(F)cc3)[nH]c3ccc(F)cc23)C1 (stereo not drawn) [Compound 34] | < 6.00 | < 6.00
O=C(CCc1c(-c2ccc(F)cc2)[nH]c2c(F)cc(F)cc12)NCC1(CO)COC1 [Compound 140] | < 6.00 | < 6.00
O=C(CCc1c(-c2ccc(F)cc2)[nH]c2c(F)cc(F)cc12)Nc1ccncc1 [Compound 119] | < 6.00 | < 6.00
CC(CO)N(C)C(=O)CCc1c(-c2ccc(F)cc2)[nH]c2ccc(F)cc12 (stereo not drawn) [Compound 51] | < 6.00 | < 6.00
O=C(CCc1c(-c2ccc(F)cc2)[nH]c2c(F)cc(F)cc12)NC(c1ccco1)C(F)(F)F (stereo not drawn) [Compound 157] | < 6.00 | < 6.00
CN1CC(NC(=O)CCc2c(-c3ccc(F)cc3)[nH]c3ccc(F)cc23)C(=O)N1 (stereo not drawn) [Compound 41] | < 6.00 | < 6.00
CNC(=O)C(C)NC(=O)CCc1c(-c2ccc(F)cc2)[nH]c2ccc(F)cc12 (racemic) [Compound 11] | 6.00 to 6.60 | 6.00 to 6.60
C[C@H](CO)NC(=O)CCc1c(-c2ccc(F)cc2)[nH]c2ccc(F)cc12 [Compound 8] | > 6.60 | > 6.60
O=C(CCc1c(-c2ccc(F)cc2)[nH]c2ccc(F)cc12)NC1CC1(F)F (stereo not drawn) [Compound 45] | 6.00 to 6.60 | < 6.00
O=C(CCc1c(-c2ccc(F)cc2)[nH]c2ccc(F)cc12)NC1CCCNC1=O (stereo not drawn) [Compound 26] | < 6.00 | < 6.00
O=C(CCc1c(-c2ccc(F)cc2)[nH]c2c(F)cc(F)cc12)NC(CO)c1ccccn1 (stereo not drawn) [Compound 185] | < 6.00 | < 6.00
CC1(N)CCN(C(=O)CCc2c(-c3ccc(F)cc3)[nH]c3ccc(F)cc23)C1 (racemic) [Compound 67] | < 6.00 | < 6.00
O=C(CCc1c(-c2ccc(F)cc2)[nH]c2c(F)cc(F)cc12)NC1(CO)CC1 [Compound 131] | > 6.60 | > 6.60
O=C(CCc1c(-c2ccc(F)cc2)[nH]c2c(F)cc(F)cc12)Nc1ccon1 [Compound 160] | < 6.00 | < 6.00

Compound | pIC50 (G1 APOL1) | pIC50 (APOL1 G1 Protein)
O=C(CCc1c(-c2ccc(F)cc2)[nH]c2c(F)cc(F)cc12)NC1CC1(F)F (stereo not drawn) [Compound 142] | < 6.00 | < 6.00
O=C(CCc1c(-c2ccc(F)cc2)[nH]c2ccc(F)cc12)N1CCC(F)C1 (stereo not drawn) [Compound 55] | < 6.00 | < 6.00
O=C(CCO)NCCc1c(-c2ccc(F)cc2)[nH]c2c(F)cc(F)cc12 [Compound 361] | 6.00 to 6.60 | 6.00 to 6.60
O=C(CCc1c(-c2ccc(F)cc2)[nH]c2ccc(F)cc12)N1CCCC1CO (stereo not drawn) [Compound 71] | < 6.00 | < 6.00
C[C@H](CO)NC(=O)CCc1c(-c2ccc(F)cc2)[nH]c2c(F)cc(Br)cc12 [Compound 227, 3-[5-bromo-7-fluoro-2-(4-fluorophenyl)-1H-indol-3-yl]-N-[(1R)-2-hydroxy-1-methyl-ethyl]propanamide] | > 6.60 | > 6.60
O=C(CCc1c(-c2ccc(F)cc2)[nH]c2ccc(F)cc12)NCC1COC1 [Compound 43] | < 6.00 | < 6.00
O=C(CCc1c(-c2ccc(F)cc2)[nH]c2ccc(F)cc12)N[C@@H]1CCC[C@H]1O [Compound 48] | < 6.00 | < 6.00
Cc1csc(NC(=O)CCc2c(-c3ccc(F)cc3)[nH]c3c(F)cc(F)cc23)n1 [Compound 125] | < 6.00 | < 6.00
NC(=O)C1(NC(=O)CCc2c(-c3ccc(F)cc3)[nH]c3ccc(F)cc23)CC1 [Compound 20] | < 6.00 | < 6.00
O=C(CCc1c(-c2ccc(F)cc2)[nH]c2c(F)cc(F)cc12)NCc1ncc[nH]1 [Compound 134] | < 6.00 | < 6.00
N#Cc1ccc(-c2[nH]c3c(F)cc(F)cc3c2CCC(=O)N[C@@H](CO)C(F)(F)F)cc1 [Compound 234, 3-[2-(4-cyanophenyl)-5,7-difluoro-1H-indol-3-yl]-N-[(1S)-2,2,2-trifluoro-1-(hydroxymethyl)ethyl]propanamide] | > 6.60 | > 6.60
O=C(CCc1c(-c2ccc(F)cc2)[nH]c2c(F)cc(F)cc12)NC1CCOC1 (stereo not drawn) [Compound 169] | < 6.00 | < 6.00
NC1CCN(C(=O)CCc2c(-c3ccc(F)cc3)[nH]c3ccc(F)cc23)C1 (stereo not drawn) [Compound 49] | < 6.00 | < 6.00
O=C(CCc1c(-c2ccc(F)cc2)[nH]c2ccc(F)cc12)NCC1(O)CCC1 [Compound 64] | < 6.00 | < 6.00
O=C(CCc1c(-c2ccc(F)cc2)[nH]c2ccc(F)cc12)Nc1cc[nH]n1 [Compound 70] | 6.00 to 6.60 | < 6.00
O=C(CCc1c(-c2ccc(F)cc2)[nH]c2ccc(F)cc12)NC1(CO)CCC1 [Compound 4] | > 6.60 | > 6.60
O=C(CCc1c(-c2ccc(F)cc2)[nH]c2c(F)cc(F)cc12)N1CCC[C@H]1CO [Compound 145] | < 6.00 | < 6.00
O=C(CCc1c(-c2ccc(F)cc2)[nH]c2c(F)cc(F)cc12)N1CC(CO)C1 [Compound 104] | < 6.00 | < 6.00
O=C(NCCCc1c(-c2ccc(F)cc2)[nH]c2ccc(F)cc12)C(F)F [Compound 506] | 6.00 to 6.60 | 6.00 to 6.60
CON(C)C(=O)CCc1c(-c2ccc(F)cc2)[nH]c2ccccc12 [Compound 237] | – | < 6.00
O=C(CCc1c(-c2ccc(F)cc2)[nH]c2c(F)cc(F)cc12)N[C@H](CO)C(F)(F)F [Compound 128] | – | 6.00 to 6.60
